Source: US9771369B2, “Compounds and methods for kinase modulation, and indications therefor” (Plexxikon Inc., priority 2014, dated 2017)

Columns and labels:
c-kit mutant D816V = c-kit mutant D816V (Homo sapiens (Human), UniProt P10721, D816V/DEL694-753); assay: c-Kit mutant D816V biochemical assay (AlphaScreen kinase activity)
Outline: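 Recombinant His-tagged c-Kit D816V kinase domain (residues 551-934, insert 694-753 deleted, E. coli-expressed) phosphorylating 30 nM biotin-(E4Y)10 with 10 μM ATP, HEPES pH 7.2, Mg/Mn, 5% DMSO; 30 min, room temperature. Phosphorylation detected by AlphaScreen (streptavidin donor/PY30 acceptor beads); IC50 from 8-point 1:3 series.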

[1] = tested on: BaF3-FL KIT D816V or BaF3-FL KIT V560G/D816V cell line; assay: Cell-based assays of c-Kit mutant kinase activity (cell proliferation, ATPlite); conditions: at least one of the c-kit cell assays of Example 7
Outline: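 BaF3 cells dependent on transfected full-length human KIT D816V or V560G/D816V (pCI-Neo, CMV promoter) were seeded at 1×10^4 cells/well and exposed to 8-point 1:3 dilutions from 10 μM top (0.2% DMSO) for three days at 37° C. ATPlite luminescence gave cell number; IC50 from concentration-response.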

Sequence of c-kit mutant D816V (P10721 other isoform, or with tags, fused parts or gaps D816V/del 694-753): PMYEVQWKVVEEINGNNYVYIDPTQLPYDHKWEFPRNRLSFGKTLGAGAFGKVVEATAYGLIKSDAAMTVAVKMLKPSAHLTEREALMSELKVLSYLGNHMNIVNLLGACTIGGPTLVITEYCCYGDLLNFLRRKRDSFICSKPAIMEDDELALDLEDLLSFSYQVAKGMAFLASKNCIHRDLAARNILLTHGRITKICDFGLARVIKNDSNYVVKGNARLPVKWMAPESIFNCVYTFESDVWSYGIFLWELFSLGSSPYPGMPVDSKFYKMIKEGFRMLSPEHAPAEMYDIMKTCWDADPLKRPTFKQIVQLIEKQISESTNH

## Cc1nc(C2(C)CCN(c3ncnc4[nH]c(-c5ccc(NS(C)(=O)=O)cc5)cc34)CC2)[nH]c1-c1ccc(OC(F)F)cc1 [P-3254, N-[4-[4-[4-[5-[4-(difluoromethoxy)phenyl]-4-methyl-1H-imidazol-2-yl]-4-methyl-1-piperidyl]-7H-pyrrolo[2,3-d]pyrimidin-6-yl]phenyl]methanesulfonamide]
c-kit mutant D816V
  IC50: 0.0001 to 1 µM
[1]
  IC50: < 10 µM

## Cc1nc(C2(C)CCN(c3ncnc4[nH]c(-c5ccc(C#N)nc5)cc34)CC2)[nH]c1-c1cccc(OC(F)F)c1 [P-3255, 5-[4-[4-[5-[3-(difluoromethoxy)phenyl]-4-methyl-1H-imidazol-2-yl]-4-methyl-1-piperidyl]-7H-pyrrolo[2,3-d]pyrimidin-6-yl]pyridine-2-carbonitrile]
c-kit mutant D816V
  IC50: 0.0001 to 1 µM
[1]
  IC50: < 10 µM

## COc1cccc(-c2[nH]c(C3(C)CCN(c4ncnc5[nH]c(-c6ccc(C#N)nc6)cc45)CC3)nc2C)c1 [P-3256, 5-[4-[4-[5-(3-methoxyphenyl)-4-methyl-1H-imidazol-2-yl]-4-methyl-1-piperidyl]-7H-pyrrolo[2,3-d]pyrimidin-6-yl]pyridine-2-carbonitrile]
c-kit mutant D816V
  IC50: 0.0001 to 1 µM
[1]
  IC50: < 10 µM
